The source of these data is ChEMBL document CHEMBL4364247, “Development of potential preclinical candidates with promising in vitro ADME profile for the inhibition of type 1 and type 2 17β-Hydroxysteroid dehydrogenases: Design, synthesis, and biological evaluation” (Eur J Med Chem, 2019).

Series [1] can be described thus: Aqueous solubility of the compound in phosphate-buffered saline at pH 7.2 after 1 to 24 hrs. Format: physicochemical.
The target in series [2] is T1, Estradiol 17-beta-dehydrogenase 2 (Mus musculus) (UniProt P51658).
T1 sequence (whole entry): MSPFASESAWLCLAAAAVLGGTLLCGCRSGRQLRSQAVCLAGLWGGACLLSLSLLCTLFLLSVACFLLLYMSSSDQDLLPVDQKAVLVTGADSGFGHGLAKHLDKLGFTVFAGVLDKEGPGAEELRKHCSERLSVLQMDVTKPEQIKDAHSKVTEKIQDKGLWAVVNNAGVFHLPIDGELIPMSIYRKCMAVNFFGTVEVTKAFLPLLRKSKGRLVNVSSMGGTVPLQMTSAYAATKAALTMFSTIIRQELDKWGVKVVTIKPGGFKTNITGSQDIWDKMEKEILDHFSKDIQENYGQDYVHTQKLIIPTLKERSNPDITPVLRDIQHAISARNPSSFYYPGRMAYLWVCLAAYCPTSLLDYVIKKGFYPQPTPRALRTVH
The experiment in a line: Inhibition of mouse liver homogenate 17beta-HSD2 at 1uM using [3H]-E2 as substrate in presence of NAD+ by radio-HPLC analysis relative to control. Format: tissue-based.

Series [3] addresses T2, 17-beta-hydroxysteroid dehydrogenase type 2 (Homo sapiens, UniProt P37059).
T2 sequence (P37059 whole entry): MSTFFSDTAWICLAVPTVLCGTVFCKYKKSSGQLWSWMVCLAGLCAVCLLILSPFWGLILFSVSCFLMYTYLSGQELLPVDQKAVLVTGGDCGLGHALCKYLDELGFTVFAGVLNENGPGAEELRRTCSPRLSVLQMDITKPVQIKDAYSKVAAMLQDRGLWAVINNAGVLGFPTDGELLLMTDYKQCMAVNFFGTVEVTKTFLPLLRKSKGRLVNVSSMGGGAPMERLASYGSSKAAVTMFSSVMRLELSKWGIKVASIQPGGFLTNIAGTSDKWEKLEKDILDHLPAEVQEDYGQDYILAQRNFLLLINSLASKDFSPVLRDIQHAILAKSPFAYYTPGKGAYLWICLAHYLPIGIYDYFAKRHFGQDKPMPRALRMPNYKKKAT
The experiment in a line: Inhibition of human placental microsomal fraction 17beta-HSD2 using [3H]-E2 as substrate in presence of NAD+ by radio-HPLC analysis. Format: subcellular, Placenta.

Series [4] deals with T3, 17-beta-hydroxysteroid dehydrogenase type 1 (Homo sapiens, UniProt P14061).
T3 sequence (P14061 whole entry): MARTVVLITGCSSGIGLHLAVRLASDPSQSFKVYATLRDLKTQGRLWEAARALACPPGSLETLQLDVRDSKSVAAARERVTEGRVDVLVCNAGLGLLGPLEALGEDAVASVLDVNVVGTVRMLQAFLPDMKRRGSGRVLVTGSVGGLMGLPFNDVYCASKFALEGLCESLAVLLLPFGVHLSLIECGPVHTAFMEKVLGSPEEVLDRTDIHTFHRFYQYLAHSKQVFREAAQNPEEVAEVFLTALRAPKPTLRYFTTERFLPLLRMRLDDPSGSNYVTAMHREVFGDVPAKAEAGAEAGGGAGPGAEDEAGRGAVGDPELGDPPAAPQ
Nature of the series: Inhibition of human placental cytosolic fraction 17beta-HSD1 using [3H]-E1 as substrate in presence of […] by radio-HPLC analysis.

Series [5] is described as follows: Half life in human liver S9 fraction at 1 uM in presence of NADPH. Format: ADME, subcellular.
In series [6] the target is T4, Estradiol 17-beta-dehydrogenase 2 (Mus musculus, UniProt P51658).
T4 sequence (P51658 whole entry): T1 sequence (whole entry)
The experiment in a line: Inhibition of mouse liver homogenate 17beta-HSD2 using [3H]-E2 as substrate in presence of NAD+ by radio-HPLC analysis. Format: tissue-based.

A short description of series [7]: Selectivity index, ratio of IC50 for mouse liver homogenate 17beta-HSD2 to IC50 for human placental cytosolic fraction 17beta-HSD1.
The target in series [8] is T5, Steryl-sulfatase (Homo sapiens) (UniProt P08842).
T5 sequence (whole entry): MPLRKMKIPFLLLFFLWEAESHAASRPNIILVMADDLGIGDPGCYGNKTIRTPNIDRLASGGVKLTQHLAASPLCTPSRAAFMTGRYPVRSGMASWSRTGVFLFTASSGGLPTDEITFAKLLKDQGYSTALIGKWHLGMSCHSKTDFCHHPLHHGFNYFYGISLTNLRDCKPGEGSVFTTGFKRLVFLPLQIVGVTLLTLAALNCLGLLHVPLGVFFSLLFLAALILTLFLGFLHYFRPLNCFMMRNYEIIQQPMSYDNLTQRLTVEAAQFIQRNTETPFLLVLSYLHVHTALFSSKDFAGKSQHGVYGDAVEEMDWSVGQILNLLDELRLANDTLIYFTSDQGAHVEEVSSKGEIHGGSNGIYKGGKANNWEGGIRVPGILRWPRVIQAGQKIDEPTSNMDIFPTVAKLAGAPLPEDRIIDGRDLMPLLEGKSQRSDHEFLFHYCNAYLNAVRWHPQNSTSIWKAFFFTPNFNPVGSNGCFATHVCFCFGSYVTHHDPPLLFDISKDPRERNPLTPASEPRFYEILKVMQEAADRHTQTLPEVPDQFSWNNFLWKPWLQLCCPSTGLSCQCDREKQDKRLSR
The experiment in a line: Inhibition of human steroid sulfatase expressed in T47D cells using [3H]-E1S as substrate by radio-HPLC analysis relative to control. Format: cell-based. The note with it: concentration not given here.

In series [9] the target is T6, 17-beta-hydroxysteroid dehydrogenase type 2 (Homo sapiens) (UniProt P37059).
T6 sequence (whole entry): T2 sequence (P37059 whole entry)
Nature of the series: Inhibition of human placental microsomal fraction 17beta-HSD2 at 10 nM using [3H]-E2 as substrate in presence of NAD+ by radio-HPLC analysis relative to control. To be noted: Placenta. Format: subcellular.

In series [10] the target is T7, 17-beta-hydroxysteroid dehydrogenase type 1 (Homo sapiens) (UniProt P14061).
T7 sequence (whole entry): T3 sequence (P14061 whole entry)
To be noted: 10 nM.
Description: Inhibition of human placental cytosolic fraction 17beta-HSD1 at 10 nM using [3H]-E1 as substrate in presence of NAD+ by radio-HPLC analysis relative to control

For a further series, the system named is HEK293. The experiment in a line: Cytotoxicity against human HEK293 cells assessed as cell viability at 6.3 uM after 66 hrs by MTT assay. Format: cell-based. The note with it: hek293, 66 h.
Series [11] can be described thus: Selectivity index, ratio of cytotoxicity against HEK293 cells to IC50 for human placental cytosolic fraction 17beta-HSD1.

Values after ≈ are worked out from the molar mass of the structure shown.

In the case of `O=C(c1ccc(-c2cncc(F)c2)s1)c1cc(F)c(F)c(O)c1F`, the solubility in [1] is over 200 µM. Besides, the inhibition in series [2] was 24%.
Take `CS(=O)(=O)c1cccc(-c2ccc(C(=O)c3cc(F)c(F)c(O)c3F)s2)c1`: the 50% inhibitory concentration (IC50) in [3] was 0.018 µM; in series [4], 0.008 µM. The solubility in series [1] was over 200 µM. The inhibition in [2] is 60%.
For `COc1c(Cl)cc(-c2ccc(C(=O)c3c(Cl)ccc(O)c3F)s2)cc1Cl`, the IC50 in series [3] is 0.015 µM; in series [4], 0.0005 µM. For the same compound, the half-life at 1 µM in [5] was under 5 min.
In series [1], `O=C(c1ccc(-c2cccc(NS(=O)(=O)c3ccccc3OC(F)(F)F)c2)s1)c1cc(F)c(F)c(O)c1F` showed a solubility of 25 to 50 µM (≈ 14.3 to 28.7 µg/mL).
`Cc1cc(-c2ccc(C(=O)c3c(F)ccc(O)c3F)s2)cc(C)c1O`: the half-inhibitory concentration (IC50) in [3] was found to be 0.0073 µM. Moreover, the half-life at 1 µM in series [5] is under 5 min. The compound also registered a solubility in series [1] of 15 to 25 µM (≈ 5.41 to 9.01 µg/mL).
Consider `CS(=O)(=O)n1cc(-c2ccc(C(=O)c3c(F)ccc(O)c3F)s2)cn1`, for which the IC50 was found to be 0.075 µM in series [3] and 0.08 µM in [4].
`NS(=O)(=O)Oc1ccc(-c2ccc(C(=O)c3cc(F)c(F)c(O)c3F)s2)cc1`: the IC50 in series [3] was found to be 0.006 µM; in [4], 0.035 µM; in series [6] it was 0.08 µM. Moreover, the half-life at 1 µM in series [5] came to 55 min. The compound further showed a solubility in series [1] of over 200 µM. Also, in [7], the Ratio IC50 is under 10. In series [8], this compound gave an inhibition of 60%.
As for `NS(=O)(=O)c1ccc(-c2ccc(C(=O)c3c(F)ccc(O)c3F)s2)cc1`, the inhibition came out at 54% in series [9] and 18% in [10].
In the case of `COc1c(Cl)cc(-c2ccc(C(=O)c3c(F)ccc(O)c3Cl)s2)cc1Cl`, the values for the IC50 in series [3] and in series [4] were 0.0095 µM and 0.015 µM, respectively.
For `Cc1cc(-c2ccc(C(=O)c3cccc(O)c3C)s2)cc(C)c1O`, the half-life at 1 µM in series [5] came to 25 min.
`Cc1cc(-c2ccc(C(=O)c3cc(F)cc(O)c3C)s2)cc(C)c1O`: the values for the IC50 in [3] and in [4] were 0.076 µM and 0.006 µM, respectively. Further, the Activity result in the series on HEK293 is “Non-Toxic”. Also, in series [11], the “Selectivity Index” value is on record as 1050. The half-life at 1 µM in [5] is 22 min. Besides, the solubility in series [1] is 100 to 200 µM (≈ 35.6 to 71.3 µg/mL).
Regarding `COc1c(Cl)cc(-c2ccc(C(=O)c3c(F)ccc(O)c3F)s2)cc1Cl`, the half-life at 1 µM in [5] was under 5 min. This compound gave a solubility in series [1] of under 5 µM.
Taken in the same sequence, the figures for `Cc1cc(-c2ccc(C(=O)c3cc(F)c(F)c(O)c3C)s2)cc(C)c1O` were 28 min and 15 to 25 µM (≈ 5.62 to 9.36 µg/mL).
Take `NS(=O)(=O)c1cccc(-c2ccc(C(=O)c3c(F)ccc(O)c3F)s2)c1`: the results for the inhibition in series [9] and in series [10] were 26% and 34%, respectively.
For `O=C(c1ccc(-c2cc(Cl)c(O)c(Cl)c2)s1)c1c(Cl)ccc(O)c1F`, the concentration for half-maximal inhibition (IC50) stood at 0.018 µM in series [3] and 0.003 µM in series [4].

The solubility is how much of the substance goes into solution per volume. Low readings indicate a poorly soluble substance, high ones a readily soluble substance. A word on the inhibition: it is the relative decrease from the control value, in per cent. What is called IC50 is the concentration needed to halve the response being measured. Usually half-life stands for how long it takes for the measured level to halve.
